Consider two substances from publication PMC9061999, “Application of the Adverse Outcome Pathway Concept to In Vitro Nephrotoxicity Assessment: Kidney Injury due to Receptor-Mediated Endocytosis and Lysosomal Overload as a Case Study” (Frontiers in Toxicology, 2022).

Read-outs that look alike come from different tables or passages of the source.

The conditions of series [1]: cited from earlier work. The text has this: Plasma/Serum Treatment KE BMC10 [µM] Concentration MOE [µM] RPTEC/TERT1 / Human KE1 4.2 1.0 - 7.4 Polymyxin B KE2 6.8 1.7 - 11.9 0.57 – 4.1 (1,2 ...
The test system of a further series is RPTEC/TERT1 cells. Type of series: cell-based, human. How it is done: For high content imaging, NRK-52E and RPTEC/TERT1 cells were cultivated in µ-clear half well area microtiter plates (Greiner) according to the protocol described for the cytotoxicity assay with slight modification. Briefly, NRK-52E cells were seeded at 5,000 cells in 100 µL growth medium per well and were incubated under standard growth conditions for 48 h prior to treatment. RPTEC/TERT1 cells were seeded at 15,000 cells in 100 µL growth medium per well and incubated under standard growth conditions for 7–8 days, until cells reached confluence and started to differentiate. This was indicated by the formation of three-dimensional structures referred to as domes which were identified by regular microscopic inspection of the plates. Only differentiated cell cultures with detectable domes were assayed. Cells of both cell lines were treated with serially diluted Polymyxin B sulfate (concentration range 7.8 to 2,000 µM) for 1, 2, 4, 6, or up to 24 h. The assay was carried out on three biological replicates defined as three different non-consecutive passages of the cell culture. Each biological replicate at each treatment concentration was assayed in triplicate wells per plate.
Following treatment, cells were stained with two different combinations of fluorescent dyes: NRK-52E cells with 50 pg/μL LysoView™ 633 (Biotium) and 1 µM SYTO 16 (Thermo Scientific), respectively, for lysosomes and nuclei; RPTEC/TERT1 cells with 10 nM LysoTracker™ Red (Thermo Scientific) and 10 ng/μL Hoechst 33342 (Merck-Sigma Aldrich), respectively, for lysosomes and nuclei. For each cell line a staining solution was obtained by mixing the lysosomes and nuclei dyes in cell culture medium at the concentrations indicated above. The cells were stained by replenishing the medium for 100 µL of staining solution per well followed by incubation at 37°C and 5% CO2 for 30 min before imaging.
Images were acquired with a fully automated fluorescence confocal Opera™ QEHS system (PerkinElmer, United Kingdom) using a ×40 air UPlanApo objective (Olympus) with 0.85 numerical aperture. NRK-52E cells stained with the dyes SYTO 16 and LysoView™633 were imaged with the laser lines 488 and 635 nm, using a 488/561/635 nm primary dichroic mirror, a 510 nm long pass (LP) detection dichroic mirror, a 540/75 nm band pass (BP) emission filter for SYTO 16 and a 690/50 nm BP emission filter for LysoView™ 633. RPTEC/TERT1 cells stained with the dyes Hoechst 33342 and LysoTracker™Red were imaged with the laser lines 405 and 561 nm, using a 405/561/635 nm primary dichroic mirror, a 580 nm LP detection dichroic mirror, a 450/50 nm BP emission filter for Hoechst 33342 and a 600/40 nm BP emission filter for LysoTracker™Red. To prevent cross talk of the fluorescent signals, each dye was imaged consecutively using the combination of lasers and filters described above. The settings for laser power, exposure time and focal height were kept constant for each cell line across all the experiments. For NRK-52E cells images were acquired at 25 randomly distributed positions in a well at a single focal plane whereas for RPTEC/TERT1 cells due to the development of dome structures images were acquired at 9 random positions at three focal planes each 1 μm apart.
The images were analyzed by custom-made image analysis scripts either with the imaging analysis software Acapella (version 2.8 PerkinElmer) or Columbus (version 2.4.0 PerkinElmer). The scripts included modules for the identification and counting of the cell nuclei to extrapolate the number of cells per well, for definition of a cytoplasm surrounding the nucleus, for identification and counting of the lysosome vesicles within the cytoplasm. Additional cellular parameters included the nuclei size, intensity, the cell size (cell area), the lysosome size (lysosome area), intensity and the number of lysosomes normalized by the cell area to compensate for difference in size of the cells.

The mark [2] stands for this setting: RPTEC/TERT1, 250 µM, high content imaging.

For the substance Colistin, in series [1] (human, cmax or css at therapeutic or known nephrotoxic doses, ref 3,4 (Tran et al., 2016; Sorli et al., 2017)), the “Plasma/Serum Concentration” value is 0.42 to 8.1 µM. Further, the “Effect on lysosomal endpoints in high content screening” value in the series with RPTEC/TERT1 cells (RPTEC/TERT1, 24 h, 7.8 to 2000 µM (smaller range for CdCl2 and 4-aminophenol), triplicate experiments, Figure S1) is “most prominent effects on lysosomal endpoints”.
Take Polymyxin B: the “Plasma/Serum Concentration” value is 0.57 to 4.1 µM in series [1] (human, cmax or css at therapeutic or known nephrotoxic doses, ref 1,2 (Sandri et al., 2013; Manchandani et al., 2016)) and 7.0 to 7.1 µM in series [1] (rat, cmax or css at human equivalent or nephrotoxic doses, ref 5 (Nilsson et al., 2015)). Also, the “Treatment time at which nuclear changes were first recorded” value is 4 h in the series with RPTEC/TERT1 cells (RPTEC/TERT1, 125 µM, high content imaging (nuclei area, nuclei intensity)) and 2 h in the series with RPTEC/TERT1 cells (setting [2]). Besides, the “Treatment time at which lysosomal effects were measurable” value in the series on RPTEC/TERT1 cells (RPTEC/TERT1, 125 µM, high content imaging, three biological replicates in triplicate wells) is 1 h; in the series with RPTEC/TERT1 cells (setting [2]) it was 1 h. Besides, the “Cytotoxicity in high content screening” value with RPTEC/TERT1 cells (RPTEC/TERT1, 24 h treatment, Figure S1) is given as “severe cytotoxicity”.
